# In publication PMC5581131, “The novel sphingosine-1-phosphate receptors antagonist AD2900 affects lymphocyte activation and inhibits T-cell entry into the lymph nodes” (Oncotarget, 2017):
# Legend:
# S1P1 = S1P1 (Homo sapiens, UniProt P21453); test: S1P1 agonist test, S1P1 CRE-bla CHO cells; format: cell-based; conditions: S1P1 CRE-BLA CHO cell line
# Method: Since AD2900 is a sphingolipid analogue with properties that resemble those of S1P, we intended to examine its ability to interact with the S1P receptors. To delineate whether AD2900 can function as an agonistic or antagonistic compound to any of the S1P receptors, we used a high-throughput screening cell-based assay, employing cell lines stably transfected with human S1P receptors 1, 2, 3, 4, or 5 [37]. In this experiment, a compound with an IC50 or EC50 value ≤10 μM for a certain S1P receptor is considered active as an antagonist or an agonist, respectively. The results illustrate that AD2900 acts as an antagonist to all S1P receptors (Table 1, Supplementary Figure 3). […] No agonist activation was evident.
# The S1P1 agonist test and S1P2, S1P3, S1P4, and S1P5 agonist and antagonist tests were conducted as previously described using S1P1 CRE-bla CHO cells, S1P2 CRE-bla CHO cells, S1P3 NFAT-bla CHO cells, Tango™ S1P4 (EDG6)-bla U-2 OS cells, and Tango™ S1P5 ([…])-bla U-2 OS cells. The S1P1 antagonist assay was carried out according to the manufacturer’s instructions using a Tango™ S1P1 (EDG1)-bla U-2 OS Cell-Based Assay (Invitrogen, NY, USA).
# activated PBMCs = test: Apoptosis of activated PBMCs, AnnexinV-PI FACS after MLR; format: cell-based, human; conditions: 1-day pretreatment, 5 days of MLR
# Method: (§1) Figure 1 AD2900 inhibits human lymphocyte proliferation in allogeneic activation (A, B) The levels of proliferative response of human peripheral blood lymphocytes (PBMCs) after 1-day pretreatment with different concentrations of AD2900, AD2750, YZ138, YZ158, and YZ297 (A) or AD2900, FTY720, and SEW2871 (B) were tested by human allogeneic mixed lymphocyte reaction (MLR) assay, followed by a [3H] thymidine incorporation analysis. (C) Apoptosis of AD2900-treated activated PBMCs was tested by AnnexinV-propidium iodide (PI) FACS analysis following 1-day AD2900 pretreatment and MLR. All the samples were compared to the untreated PBMC control. (D) IFN-γ secretion from activated PBMCs was tested by ELISA following a 1-day AD2900 pretreatment in MLR. On the 5th day of hMLR, supernatants were collected and assayed for the level of IFN-γ. (E) Jurkat cell viability after a 1-day treatment with different concentrations of AD2900, FTY720, and SEW2871 was tested by XTT viability assay. […]
# Human PBLs were collected from human whole blood collected from healthy donors. […] For the thymidine incorporation assay, after 4 days of co-culture, cells were pulsed with ^3H-thymidine at 1 μCi (0.037MBq) per well (PerkinElmer, MA, USA) for 16 additional hours and then harvested onto glass-fiber filters. ^3H-thymidine incorporation was measured using Top Count. […]
# non-activated PBMCs = test: Proliferation of non-activated PBMCs, [3H] thymidine; format: cell-based, human; conditions: different concentrations
# [1] = design: method as in unpublished data; conditions: previous studies; ref unpublished data; cited from earlier work
# Molt4 = test: XTT viability assay, Molt4; format: cell-based, human; conditions: 1-day treatment, compared with Jurkat (>10 μM)
# Method: as §1, with “assay. (F) H9, CEM/C1, and Molt4 cell viability after a 1-day treatment with different concentrations of AD2900 was tested by XTT viability assay. Graphs summarize the results of at least three independent experiments. Results of Student’s t-test: *(P < 0.05, two-tailed test), ** (P < 0.01, two-tailed test), *** (P < 0.001, two-tailed test), **** (P < 0.0001, two-tailed test).” for “assay.”
# Sequence of S1P1 (P21453 whole entry): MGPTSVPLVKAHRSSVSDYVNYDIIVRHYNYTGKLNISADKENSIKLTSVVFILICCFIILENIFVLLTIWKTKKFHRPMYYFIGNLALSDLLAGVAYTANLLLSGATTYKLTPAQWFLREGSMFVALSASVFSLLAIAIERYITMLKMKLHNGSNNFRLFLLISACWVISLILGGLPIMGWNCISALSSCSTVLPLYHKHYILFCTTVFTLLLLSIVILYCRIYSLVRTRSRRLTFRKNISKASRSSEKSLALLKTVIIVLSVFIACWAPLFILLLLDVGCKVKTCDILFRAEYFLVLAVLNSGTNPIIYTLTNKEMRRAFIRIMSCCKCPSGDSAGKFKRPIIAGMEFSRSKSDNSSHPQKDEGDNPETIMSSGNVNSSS
compound,measurement,setting,value
CCCCCCCCCCCCCCCCNC(CO)(CO)CO [AD2900],EC50,S1P1,> 50 µM
same,concentrations at which apoptosis was induced on activated PBMCs,activated PBMCs,above 10 μM
same,influence on the proliferation of non-activated PBMCs,non-activated PBMCs,no significant differences
same,stable at room temperature,[1],at least 2 years
same,"cell viability, Molt4",Molt4,reduced cell viability could be detected even at lower concentrations
